Values joined by “and” are separate entries in the source; they are usually repeats but may differ in a detail not shown here. Equal entries are not always repeated.

The test system of one assay is GEMIN2. As to the kind of experiment: AP-MS chemical proteomics, GEMIN2. Format: binding, human. On the procedure: The samples for AP-MS were prepared following pulldown procedure as previously described with minor modifications. Briefly, U2OS cells were lysed in RIPA buffer and the cell lysate was equally divided into two groups: (1) DMSO group (control group): the cell lysate was incubated with 20 μM biotin-labeled compound 1; (2) Cpmd 1 group (sample group): the cell lysate was incubated with 20 μM biotin-labeled compound 1 and 200 μM free compound 1. Each group contains three biological replicates. They were incubated overnight at 4 °C, then 30 μL streptavidin beads (Thermo Fisher, 20353) was added and incubated at 4 °C for 1 h. The beads were then washed with RIPA buffer for 3 times, 10 min/time. […]
Samples were analyzed by nanoLC-MS/MS (nanoRSLC, Thermo Fisher) using an Aurora series (Ion Opticks) reversed phase HPLC column (25 cm length × 75 µm inner diameter) and directly injected to an Orbitrap Eclipse (Thermo Fisher) using a 120 min gradient (mobile phase A = 0.1% formic acid, mobile phase B = 99.9% acetonitrile with 0.1% formic acid; hold 2% B for 5 min, 2–6% B in 0.1 min, 6–25% in 100 min, 25–50% in 15 min) at a flow rate of 350 nL/min. Eluted peptide ions were analyzed using a data-dependent acquisition (DDA) method with resolution settings of 120,000 and 15,000 (at m/z 200) for MS1 and MS2 scans, respectively. […]

Assay [1] deals with T1, proteins displaced from immobilized biotin-Cmpd 1 pulldowns (U2OS cell lysate) (Homo sapiens, UniProt Q14151).
T1 construct: endogenous in cells; host or cells: U2OS
As to the kind of experiment: Affinity-purification and mass spectrometry (AP-MS) chemical proteomics, all proteins.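 On Difference: 200 µM free competitor with 20 µM biotin probe overnight in lysate.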 The following applies: GN=SAFB2 (Q14151). Format: binding.

Assay [2] addresses T2, proteins displaced from immobilized biotin-Cmpd 1 pulldowns (U2OS cell lysate) (Homo sapiens, UniProt P47756).
T2 construct: endogenous in cells; host or cells: U2OS
The description is as above. In kind it is binding. The following applies: GN=CAPZB (P47756).

For assay [3], the target named is T3, proteins displaced from immobilized biotin-Cmpd 1 pulldowns (U2OS cell lysate) (Homo sapiens, UniProt O75223).
T3 construct: endogenous in cells; host or cells: U2OS
Described as above. Format: binding. The following applies: GN=GGCT (O75223).

Assay [4] deals with T4, proteins displaced from immobilized biotin-Cmpd 1 pulldowns (U2OS cell lysate) (Homo sapiens, UniProt Q9BVJ6).
T4 construct: endogenous in cells; host or cells: U2OS
Described as above. The following applies: GN=UTP14A (Q9BVJ6). Format: binding.

In assay [5] the target is T5, proteins displaced from immobilized biotin-Cmpd 1 pulldowns (U2OS cell lysate) (Homo sapiens, UniProt Q5T749).
T5 construct: endogenous in cells; host or cells: U2OS
The assay is described as above. In kind it is binding. The following applies: GN=KPRP (Q5T749).

Assay [6] concerns the target T6, proteins displaced from immobilized biotin-Cmpd 1 pulldowns (U2OS cell lysate) (Homo sapiens, UniProt P62136).
T6 construct: endogenous in cells; host or cells: U2OS
Described as above. Format: binding. The conditions noted are these: GN=PPP1CA (P62136).

T6 sequence (P62136 whole entry): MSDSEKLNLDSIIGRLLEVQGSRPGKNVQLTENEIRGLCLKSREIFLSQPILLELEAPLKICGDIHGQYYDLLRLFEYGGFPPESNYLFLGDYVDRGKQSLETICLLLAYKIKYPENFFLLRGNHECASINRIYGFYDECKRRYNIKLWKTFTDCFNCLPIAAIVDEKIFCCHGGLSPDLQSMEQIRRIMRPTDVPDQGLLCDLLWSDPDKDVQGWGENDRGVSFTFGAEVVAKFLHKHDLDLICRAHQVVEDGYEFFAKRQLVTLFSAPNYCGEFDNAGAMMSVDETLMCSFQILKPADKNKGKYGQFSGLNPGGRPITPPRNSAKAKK
T1 sequence (Q14151 whole entry): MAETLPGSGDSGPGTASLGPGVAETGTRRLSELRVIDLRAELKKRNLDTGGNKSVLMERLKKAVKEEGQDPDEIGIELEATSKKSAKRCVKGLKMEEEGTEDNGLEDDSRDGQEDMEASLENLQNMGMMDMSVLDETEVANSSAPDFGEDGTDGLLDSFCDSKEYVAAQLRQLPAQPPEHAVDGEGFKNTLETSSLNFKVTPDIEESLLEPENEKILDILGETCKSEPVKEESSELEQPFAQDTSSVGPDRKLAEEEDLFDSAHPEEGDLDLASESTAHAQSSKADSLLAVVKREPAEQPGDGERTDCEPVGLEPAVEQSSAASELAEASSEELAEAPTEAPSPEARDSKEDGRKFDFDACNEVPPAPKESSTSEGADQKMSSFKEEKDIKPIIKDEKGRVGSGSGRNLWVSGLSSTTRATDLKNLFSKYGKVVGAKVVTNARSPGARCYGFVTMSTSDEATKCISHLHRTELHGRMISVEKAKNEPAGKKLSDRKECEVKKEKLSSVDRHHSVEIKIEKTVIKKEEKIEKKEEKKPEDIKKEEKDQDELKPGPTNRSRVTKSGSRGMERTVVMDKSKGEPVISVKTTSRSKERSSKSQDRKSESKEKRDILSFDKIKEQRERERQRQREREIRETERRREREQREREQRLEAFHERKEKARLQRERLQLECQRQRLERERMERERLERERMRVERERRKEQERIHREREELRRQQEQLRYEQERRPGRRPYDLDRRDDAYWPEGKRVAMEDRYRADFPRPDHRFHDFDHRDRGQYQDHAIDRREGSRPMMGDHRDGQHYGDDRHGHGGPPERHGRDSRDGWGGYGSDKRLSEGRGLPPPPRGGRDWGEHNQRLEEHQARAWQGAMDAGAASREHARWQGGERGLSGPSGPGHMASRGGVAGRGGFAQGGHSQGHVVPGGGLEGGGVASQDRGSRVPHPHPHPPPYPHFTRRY
T2 sequence (P47756 whole entry): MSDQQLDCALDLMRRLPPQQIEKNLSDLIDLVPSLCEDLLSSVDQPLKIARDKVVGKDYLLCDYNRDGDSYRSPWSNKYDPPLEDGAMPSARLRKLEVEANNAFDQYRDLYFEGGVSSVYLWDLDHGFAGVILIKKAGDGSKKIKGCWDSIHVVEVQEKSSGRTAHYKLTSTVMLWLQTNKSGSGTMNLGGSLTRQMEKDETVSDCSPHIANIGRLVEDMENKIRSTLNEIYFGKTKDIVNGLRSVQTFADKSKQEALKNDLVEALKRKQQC
T4 sequence (Q9BVJ6 whole entry): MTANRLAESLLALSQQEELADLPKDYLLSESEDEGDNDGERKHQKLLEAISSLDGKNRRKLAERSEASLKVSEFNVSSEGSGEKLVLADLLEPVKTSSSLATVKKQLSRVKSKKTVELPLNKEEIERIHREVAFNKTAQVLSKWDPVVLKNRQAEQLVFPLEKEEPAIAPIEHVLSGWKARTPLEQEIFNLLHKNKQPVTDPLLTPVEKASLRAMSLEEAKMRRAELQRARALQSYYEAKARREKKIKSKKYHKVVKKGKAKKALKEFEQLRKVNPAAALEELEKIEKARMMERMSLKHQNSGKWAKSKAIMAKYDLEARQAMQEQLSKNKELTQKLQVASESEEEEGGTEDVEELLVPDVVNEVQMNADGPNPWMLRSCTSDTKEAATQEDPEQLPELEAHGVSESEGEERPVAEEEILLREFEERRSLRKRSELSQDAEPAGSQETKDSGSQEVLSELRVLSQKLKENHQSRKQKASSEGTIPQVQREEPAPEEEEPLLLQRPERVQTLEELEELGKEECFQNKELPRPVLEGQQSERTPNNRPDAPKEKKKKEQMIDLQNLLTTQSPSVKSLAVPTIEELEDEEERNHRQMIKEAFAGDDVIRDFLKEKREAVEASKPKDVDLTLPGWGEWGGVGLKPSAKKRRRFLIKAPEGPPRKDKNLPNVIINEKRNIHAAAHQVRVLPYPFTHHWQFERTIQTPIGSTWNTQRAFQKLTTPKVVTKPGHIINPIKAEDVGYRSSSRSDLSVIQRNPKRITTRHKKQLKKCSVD
T3 sequence (O75223 whole entry): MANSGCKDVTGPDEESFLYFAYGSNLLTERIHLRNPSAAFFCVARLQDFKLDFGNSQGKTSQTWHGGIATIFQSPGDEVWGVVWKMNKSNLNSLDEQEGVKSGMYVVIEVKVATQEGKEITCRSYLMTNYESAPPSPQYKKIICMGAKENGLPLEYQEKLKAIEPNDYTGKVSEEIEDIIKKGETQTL
T5 sequence (Q5T749 whole entry): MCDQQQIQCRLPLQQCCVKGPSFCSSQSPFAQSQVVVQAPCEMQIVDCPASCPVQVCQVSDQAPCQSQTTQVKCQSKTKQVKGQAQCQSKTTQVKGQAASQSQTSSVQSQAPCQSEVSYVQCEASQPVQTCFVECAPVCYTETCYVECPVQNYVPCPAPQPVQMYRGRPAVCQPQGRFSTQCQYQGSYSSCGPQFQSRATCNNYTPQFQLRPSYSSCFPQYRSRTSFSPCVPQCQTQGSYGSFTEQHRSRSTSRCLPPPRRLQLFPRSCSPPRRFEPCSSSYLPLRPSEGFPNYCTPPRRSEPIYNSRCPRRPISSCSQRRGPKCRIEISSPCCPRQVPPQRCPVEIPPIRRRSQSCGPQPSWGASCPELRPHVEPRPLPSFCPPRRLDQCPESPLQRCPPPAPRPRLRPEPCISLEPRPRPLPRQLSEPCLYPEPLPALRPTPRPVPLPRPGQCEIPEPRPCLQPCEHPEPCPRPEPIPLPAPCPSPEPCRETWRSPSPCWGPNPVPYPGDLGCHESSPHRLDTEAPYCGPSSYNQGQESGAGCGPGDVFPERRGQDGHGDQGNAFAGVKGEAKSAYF

Take `Cn1c2c(c(=N)c3c1CCC3)CCC2` [Compound 1, 4-methyl-2,3,4,5,6,7-hexahydrodicyclopenta[b,e]pyridin-8(1H)-imine]: the Difference in the assay on GEMIN2 (GN=GEMIN2 (O14893), Cmpd minus DMSO, -LOG(P-value) 2.68522) is -5.244; in assay [1] (Cmpd minus DMSO, -LOG(P-value) 1.24711), 1.435; in assay [2] (Cmpd minus DMSO, -LOG(P-value) 1.09295) it was -1.787; in assay [3] (Cmpd minus DMSO, -LOG(P-value) 0.708043), -1.888; in assay [4] (Cmpd minus DMSO, -LOG(P-value) 0.846922), 1.578; in assay [5] (Cmpd minus DMSO, -LOG(P-value) 1.8417), -3.732. This compound showed a Difference in assay [6] (Cmpd minus DMSO, -LOG(P-value) 1.15373) of 2.296. Moreover, the “log2 FC (Cmpd 1/DMSO), GEMIN2” value in the assay with GEMIN2 (biotin-Cmpd 1 pulldown, competition with 200 μM compound 1 relative to DMSO, U2OS lysate) is −5.2. The “iBAQ Cmpd” value was 18.2139 and 16.8013 and 17.9077 in assay [1] (replicates 1-3); 15.5737 and 16.3289 and 18.0803 in assay [2] (replicates 1-3); 19.1406 and 20.1765 and 18.5823 in assay [3] (replicates 1-3); 17.3529 and 17.1229 and 16.9849 in assay [4] (replicates 1-3); 15.9159 and 16.7213 and 14.3127 in assay [5] (replicates 1-3); 15.2178 and 17.9982 and 17.5212 in assay [6] (replicates 1-3).

For the origin of these results see paper PMC9481570, “A small molecule antagonist of SMN disrupts the interaction between SMN and RNAP II” (Nature Communications, 2022).
